We go through two substances from publication PMC11474028, “Lipopeptide antibiotics disrupt interactions of undecaprenyl phosphate with UptA” (Proceedings of the National Academy of Sciences of the …, 2024).

Entries after “also recorded” stand apart in the source; their conditions may differ.

The target of one assay is UptA (Bacillus subtilis, UniProt O31823). In words: Native MS of antibiotic binding to UptA. Conditions: 2.5 µM UptA, 10 µM C55-P, antibiotic up to 100 µM (polymyxins 100 µM), 0.05% LDAO, 200 mM ammonium acetate, 75 V. The protocol:
We next investigate how UptA and its complex with C55-P interact with a range of cell-wall targeting antibiotics including the lipopeptides daptomycin and amphomycin. […] We investigated whether daptomycin affects C55-P binding to UptA by recording spectra for solutions containing 2.5 µM UptA, 10 µM C55-P, and different concentrations of daptomycin.
(§1) Amphomycin and derivatives are known to kill bacteria by forming complexes with free C55-P ([46]), however, whether or not this involves a direct interaction with a protein cellular target is not known. We therefore investigated how amphomycin affects the UptA:C55-P complex. We recorded spectra for solutions containing 2.5 µM UptA, 10 µM C55-P and then equilibrated aliquots with increasing concentrations of amphomycin.
The amphiphilic nature of daptomycin and amphomycin raises the possibility that these lipopeptide antibiotics may promiscuously bind to UptA in a nonspecific manner. We probe this possibility by recording spectra for UptA:C55-P solutions in the presence of 100 µM polymyxin B and 100 µM polymyxin E. These polymyxins are membrane-disrupting lipopeptides that target the outer membrane lipopolysaccharides in Gram-negative bacteria ([47]) but without a known affinity for C55-P or UptA.
To this end, we prepared UptA:C55-P mixtures and then equilibrated aliquots with bacitracin and vancomycin.
(§2) Detailed experimental procedures are provided in SI Appendix. Briefly, UptA (wild type and mutants) was expressed in E. coli C43(DE3) cells (Lucigen) with GFP fusion on the C-terminus and solubilized from the membrane fraction by n-dodecyl-β-D-maltopyranoside (DDM). After purification by affinity chromatography, the GFP was cleaved by TEV protease and removed, and UptA was further purified by size-exclusion chromatography in a buffer containing 20 mM Tris-HCl (pH 8.0), 200 mM NaCl, 0.02% DDM. Before measurements, proteins were buffer-exchanged into 0.05% LDAO, 200 mM ammonium acetate at the desired pH using a centrifugal buffer exchange device (Micro Bio-Spin 6, Bio-Rad). Stock solutions of lipids were prepared from chloroform/methanol solution by evaporating aliquots of known volume in a SpeedVac. After drying, the lipid films were weighed and resuspended to a final concentration of 0.5 mM in 200 mM ammonium acetate and 0.05% LDAO by vertexing. Stock solutions of 0.5 mM amphomycin, aspartocin D, daptomycin, polymyxin B, polymyxin E, and bacitracin were made in the same buffer. All experiments were repeated three times from newly prepared stock solutions. Native mass spectrometry was performed on a Q-Exactive hybrid quadrupole-Orbitrap mass spectrometer (Thermo Fisher Scientific, Bremen, Germany), and lipid identification was performed on an Orbitrap Eclipse Tribrid mass spectrometer (Thermo). […]

For another assay, the system named is UptA:C55-P complex. Nature of the assay: Native MS of UptA:C55-P complex in the presence of antibiotics. It is filed as binding, Bacillus subtilis. Conditions: 2.5 µM UptA, 10 µM C55-P; for effect of antibiotic on UptA:C55-P complex (in words): 0 to 100 µM antibiotic, 75 V, mean of three independent replicates. As for the experimental part:
as §1
(A) Mass spectra (6+ charge state) for solutions containing 2.5 µM UptA and 10 µM C55-P incubated with 0 to 100 µM amphomycin. (B) Relative intensity of C55-P bound to UptA in the presence of amphomycin and daptomycin. The bar represents the mean of three independent replicates shown as data points and error bars are SD. […] (C) Fraction of C55-P bound to UptA in the presence of cell wall targeting antibiotics. Each sample contains 2.5 µM UptA, 10 µM C55-P and 100 µM of indicated antibiotic, and spectra were acquired using the same instrument settings and collisional activation of 75 V. The bar represents the mean of three independent replicates shown as data points, and the error bar represents SD. […]
as §2

For assay [1] the following is noted: daptomycin ref 45; vancomycin ref 49, 50; cited from earlier work.
The subject of assay [2] is B. subtilis strains bearing R112 and R118 mutations on UptA. Conditions: cited from earlier work. An excerpt:
Conserved arginine residues in the putative membrane reentrant loops of E. coli DedA proteins YqjA (R130) and YghB (R136) are important for the cellular role of these proteins ([36]). […] How these residues impact substrate interactions, however, is not known. […] Despite the combined cellular pool of C55-PP and C55-P being limited to ~1.5 × 10^5 molecules per cell ([56]), they mediate the transport of glycan-bearing components of the cell wall peptidoglycan, teichoic acid, and capsular polysaccharid ...

For assay [3] the following is noted: ref 46 (ref 23, 46, 60, 61); cited from earlier work. The text has this:
To this end, we prepared UptA:C55-P mixtures and then equilibrated aliquots with bacitracin and vancomycin. […] In line with the specificity of bacitracin for C55-PP rather than C55-P, this antibiotic modestly ...

Chain of UptA (O31823 whole entry): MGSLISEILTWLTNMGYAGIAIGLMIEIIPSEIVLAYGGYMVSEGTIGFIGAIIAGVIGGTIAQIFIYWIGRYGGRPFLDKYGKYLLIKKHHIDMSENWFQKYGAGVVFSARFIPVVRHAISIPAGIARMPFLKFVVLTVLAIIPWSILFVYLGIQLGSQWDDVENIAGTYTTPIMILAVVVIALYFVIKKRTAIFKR

With daptomycin, the “binding of antibiotic to UptA (in words)” value at UptA was “daptomycin interacts with UptA”. In addition, in the assay on UptA:C55-P complex, the “effect of antibiotic on UptA:C55-P complex (in words)” value is on record as “does not directly compete against C55-P binding to the protein; also recorded: modest impact”. The “complex formation with or sequestration of lipid II (in words)” value in assay [1] is given as “complexing with lipid II”.
On to amphomycin, for which, at UptA, the “binding of antibiotic to UptA (in words)” value is “peaks consistent with amphomycin binding to UptA; also recorded: bind to UptA with higher affinity than other cell-wall targeting antimicrobial peptides such as bacitracin and vancomycin”. Also, the “effect of antibiotic on UptA:C55-P complex (in words)” value was “peak intensities of the UptA:C55-P complex reduce with respect to an increase in the concentration of amphomycin; also recorded: induce dissociation of UptA:C55-P complexes; also recorded: bind directly to UptA and induce dissociation of the UptA:C55-P complex; also recorded: can directly inhibit UptA function by out-competing the substrate for the protein binding” with UptA:C55-P complex; “destabilizes the UptA:C55-P complex and sequesters C55-P” in the assay on UptA:C55-P complex (listed as Amphomycin). For the same substance, the “UptA:C55-P complex remaining at 10-fold molar excess of antibiotic (in words)” value in the assay with UptA:C55-P complex (10-fold molar excess of amphomycin) was “little-to-no UptA:C55-P complexes remained”. For the same substance, in assay [2], the “susceptibility of B. subtilis cells with UptA R112 and R118 mutations (in words)” value is on record as “more susceptible to inhibition by amphomycin”. In addition, the “complex formation with free C55-P (in words)” value in assay [3] is “known propensity to form complexes with free C55-P molecules”.
